From ChEMBL document CHEMBL6182843, “Actinomycetes: Treasure trove for discovering novel antibiotic candidates” (2025)
Converted amounts (≈) assume the structure as drawn.

Key:
Format in all cases: functional
[1] = system: Staphylococcus aureus; experiment: Antibacterial activity against Staphylococcus aureus ATCC 33592 assessed as reduction in microbial growth
[2] = system: Staphylococcus aureus; experiment: Antibacterial activity against Staphylococcus aureus ATCC 25923 assessed as reduction in microbial growth
[3] = system: Bacillus subtilis; experiment: Antibacterial activity against Bacillus subtilis ATCC 6633 assessed as reduction in microbial growth
[4] = system: Bacillus cereus; experiment: Antibacterial activity against Bacillus cereus
[5] = system: Bacillus subtilis; experiment: Antibacterial activity against Bacillus subtilis
[6] = system: Escherichia coli; experiment: Antibacterial activity against Escherichia coli
[7] = system: Staphylococcus aureus; experiment: Antibacterial activity against methicillin-resistant Staphylococcus aureus
[8] = system: Staphylococcus aureus; experiment: Antibacterial activity against Staphylococcus aureus
[9] = system: Staphylococcus aureus; experiment: Antibacterial activity against Staphylococcus aureus ATCC 33591
[10] = system: Enterococcus faecalis; experiment: Antibacterial activity against Vancomycin-resistant Enterococcus faecalis ATCC 51299
[11] = system: Xanthomonas oryzae; experiment: Antibacterial activity against Xanthomonas oryzae
[12] = system: Xanthomonas campestris; experiment: Antibacterial activity against Xanthomonas campestris
[13] = system: Staphylococcus aureus; experiment: Antibacterial activity against Staphylococcus aureus assessed as reduction in microbial growth incubated for 24 hrs by CLSI protocol based analysis
[14] = system: Escherichia coli; experiment: Antibacterial activity against Escherichia coli ATCC 25922 assessed as reduction in microbial growth incubated for 24 hrs by CLSI protocol based analysis
[15] = system: Staphylococcus aureus; experiment: Antimicrobial activity against Staphylococcus aureus ATCC 29213 assessed as reduction in microbial growth incubated for 16 hrs by CLSI protocol based Mueller-Hinton broth micro-dilution method
[16] = system: Staphylococcus epidermidis; experiment: Antimicrobial activity against Staphylococcus epidermidis ATCC 12228 assessed as reduction in microbial growth incubated for 16 hrs by CLSI protocol based Mueller-Hinton broth micro-dilution method
[17] = system: Escherichia coli; experiment: Antibacterial activity against […] Escherichia coli ATCC 25922 assessed as reduction in bacterial growth measured for 12 hrs by CLSI protocol based broth microdilution method
[18] = system: Staphylococcus aureus; experiment: Antibacterial activity against methicillin-resistant Staphylococcus aureus ATCC 43300 assessed as reduction in bacterial growth measured for 12 hrs by CLSI protocol based broth microdilution method

With `CC[C@H](C)[C@@H]1NC(=O)[C@@H](Cc2c[nH]c3cc(Cl)ccc23)NC(=O)[C@@H](Cc2c[nH]c3ccc(Cl)cc23)NC(=O)[C@@H](CO)NC(=O)[C@@H](CCC(=O)O)NC(=O)[C@@H](C(C)C)NC1=O` the MIC [1] was 1.6 µg/mL, the MIC [2] was 3.1 µg/mL and the MIC [3] was 1.6 µg/mL.
Compound `CC1=C(CC2=C(O)C(=O)c3cc(O)c(C)c(O)c3C2=O)CCC(C)(C)C1` has an MIC [4] of 6.25 µg/mL (≈ 17.5 µM).
For `COC(=O)c1csc(-c2nc3c(-c4ccc(OC)cc4)c(OC)c(O)c(-c4ccc(OC)cc4)c3s2)n1`, the MIC [5] was 0.8 µg/mL (≈ 1.5 µM), the MIC [6] was 0.8 µM and the MIC [7] was over 50 µg/mL.
In the case of `COC(=O)CCSC1=C(c2ccc(OC)cc2)C(O)C(OC)=C(c2ccc(OC)cc2)C1=O` (stereo not drawn), the MIC [7] is reported as 12.5 µM.
`Cc1c(O)cc2c(c1O)C(=O)C(C[C@@]13CCC(C)(C)C[C@]1(C)O3)=C(Cl)C2=O` gave an MIC [8] of 25 µg/mL (≈ 64 µM) and an MIC [4] of 12.5 µg/mL (≈ 32 µM).
Compound `COc1cc2oc3c(O)c4c(c(O)c3c(=O)c2cc1O)-c1c(cc2cc(C)n(CCO)c(=O)c2c1O)CC4` has an MIC [9] of 0.25 µg/mL (≈ 0.483 µM) and an MIC [10] of 0.25 µg/mL (≈ 0.483 µM).
For `CC[C@H](C)[C@@H]1NC(=O)[C@@H](Cc2c[nH]c3cc(Br)ccc23)NC(=O)[C@@H](Cc2c[nH]c3ccc(Br)cc23)NC(=O)[C@@H](CO)NC(=O)[C@@H](CCC(=O)O)NC(=O)[C@@H](C(C)C)NC1=O`, the MIC [1] was over 100 µg/mL, the MIC [2] was 25 µg/mL and the MIC [3] was 1.6 µg/mL.
`C=CC(C)(C)ON(CCCCCCCCCCCC(O)c1nc(CCCNC(=N)N)c(OC)nc1CCCNC(=N)N)C(=N)N` (stereo not drawn) gave an MIC [6] of 1.5 µg/mL and an MIC [7] of 0.8 µg/mL.
`O=C1c2ccc3cc([C@@H](O)CO)cc(O)c3c2C(=O)c2cccc(O)c21` gave an MIC [5] of 0.78 µg/mL (≈ 2.23 µM), an MIC [6] of 1.56 µg/mL and an MIC [7] of 0.39 µg/mL.
With `C=CC(C)(C)ON(CCCCCCC(O)CCCCCc1nc(CCCNC(=N)NCC=C(C)C)c(OC)nc1CCCNC(=N)NCC=C(C)C)C(=N)N` (stereo not drawn) the MIC [6] was 1 µg/mL and the MIC [7] was 1 µg/mL.
Compound `CO[C@H]1C[C@H](C)Cc2cc(O)cc(c2)NC(=O)/C(C)=C/CC[C@H](OC)[C@@H](OC(N)=O)/C(C)=C/[C@H](C)[C@H]1O` has an MIC [11] of 0.25 µg/mL (≈ 0.482 µM) and an MIC [12] of 2.03 µg/mL (≈ 3.91 µM).
Work on `COc1c(O)cc2cc1C[C@@H](C)C[C@H](OC)[C@H](O)[C@@H](C)/C=C(\C)[C@H](OC(N)=O)[C@@H](OC)CC/C=C(\C)C(=O)N2` [REBLASTATIN] yielded an MIC [11] of 4.06 µg/mL (≈ 7.4 µM) and an MIC [12] of 0.125 µg/mL (≈ 0.228 µM).
`CC[C@H](C)C[C@@]1(O)C(=O)C[C@H](O)[C@](C)(O)/C=C(\C)[C@@H](O)/C(C)=C/C(C)=C/C[C@@H](CO[C@@H]2O[C@H](CO)[C@@H](O)[C@H](O)[C@H]2O)OC(=O)C[C@@H](O)CNC1=O` gave an MIC [13] of 21 µg/mL and an MIC [14] of 27.9 µg/mL.
With `C/C=C1\NC(=O)[C@@H](C)NC(=O)CNC(=O)[C@@](C)(C(C)=O)NC(=O)[C@H](Cc2c[nH]c3cccc(OC)c23)NC(=O)c2csc(n2)[C@@H](C)NC(=O)CNC1=O` the MIC [15] was 12.5 µg/mL and the MIC [16] was 50 µM.
`CCc1c(Cc2ccccc2)oc(=O)c(CC)c1O` showed an MIC [5] of over 50 µg/mL and an MIC [7] of 12.5 µg/mL.
`COC(=O)/C(C)=C/CC[C@H](OC)[C@@H](OC(N)=O)/C(C)=C/[C@H](C)[C@@H](O)[C@H](C[C@H](C)CC1=C(OC)C(=O)C2=C(NC(=O)[C@@H](C)S2)C1=O)OC` was tested, and the MIC [5] was 64 µg/mL (≈ 94 µM) and the MIC [8] was 64 µg/mL (≈ 94 µM).
`CC[C@H](C)C[C@]1(O)C(=O)NC[C@H](O)CC(=O)O[C@H](CO[C@@H]2O[C@H](CO)[C@@H](O)[C@H](O)[C@H]2O)CC/C=C(\C)[C@H]2C(C)=C[C@@]3(C)O[C@H]4C[C@]1(O)O[C@@]4(C)[C@@H]23` was tested, and the MIC [13] was 11.6 µg/mL and the MIC [14] was 15.7 µg/mL.
For `CC[C@H]1NC(=O)CNC(=O)[C@@](C)(C(C)=O)NC(=O)[C@H](Cc2c[nH]c3cccc(OC)c23)NC(=O)c2csc(n2)[C@@H](C)NC(=O)CNC(=O)/C(=C/CO)NC1=O`, the MIC [15] was 25 µg/mL and the MIC [16] was 1.6 µM.
Work on `COC1=C(CC2=C(C)CC(C)(C)CC2)C(=O)c2c(cc(O)c(C)c2O)C1=O` yielded an MIC [4] of 50 µg/mL (≈ 135 µM).
With `C/C=C1\NC(=O)[C@@H](CC)NC(=O)CNC(=O)[C@@](C)(C(C)=O)NC(=O)[C@H](Cc2c[nH]c3ccc(O)c(OC)c23)NC(=O)c2csc(n2)[C@@H](C)NC(=O)CNC1=O` the MIC [15] was 200 µg/mL and the MIC [16] was 12.5 µM.
Compound `CC(C)c1cc(=O)c2c(cc(O)c3c(=O)c4c(O)c(Br)ccc4c(=O)c32)c1=O` has an MIC [7] of 0.098 µg/mL.
`CC(=O)NCCc1c(CC2c3ccccc3[C@]3(O)CCN(C(C)=O)[C@@]23O)[nH]c2ccccc12` (stereo partly drawn) gave an MIC [17] of 13 µg/mL (≈ 29 µM) and an MIC [18] of 25 µg/mL (≈ 55.9 µM).
Compound `C=CC(C)(C)ON(CCCCCCCCCCCC(O)c1nc(CCCNC(=N)NCC=C(C)C)c(OC)nc1C(O)CCNC(=N)NCC=C(C)C)C(=N)N` (stereo not drawn) has an MIC [6] of 0.5 µg/mL and an MIC [7] of 0.5 µg/mL.
In the case of `COc1cc2oc3c(c(=O)c2cc1O)C(=O)C1=C(CCc2cc4cc(C)[nH]c(=O)c4c(O)c21)C3=O`, the MIC [9] is reported as 0.12 µg/mL (≈ 0.255 µM) and the MIC [10] is reported as 0.25 µg/mL (≈ 0.53 µM).
